Reference: patent publication US20220370416A1, “COMPOUNDS AND METHODS FOR TARGETED DEGRADATION OF KRAS” (Arvinas Operations, Inc., priority 2020, published 2022)

Tests used:
HiBit-KRAS^G12C [1] = molecular target: T1, HiBit-KRAS^G12C (Homo sapiens, UniProt P01116, G12C); assay: HiBit degradation assay in MiaPaCa-2 HiBit-KRas^G12C cells; type: cell-based; conditions: 24 hours
Experimental: Reagents. SW1573 (CRL-2170) and MiaPaCa-2 (CRL-1420) cells were purchased from ATCC. Both cell lines are […] for the G12C mutation in KRAS. SW1573 cells were cultured in DMEM+F12+Glutamax (+Sodium Bicarbonate, +sodium pyruvate, Thermofisher scientific, #10565) supplemented with 10% FBS (Thermofisher scientific, #2060357) and 1% Antibiotic-Antimycotic (Thermofisher scientific, #15240096). MiaPaCa-2 cells were cultured in DMEM+Glutamax media (Thermofisher scientific, #10566) supplemented with 10% FBS (Thermofisher scientific, #2060357) and 1% Antibiotic-Antimycotic (Thermofisher scientific, #15240096). For degradation assays, 384 well plates were purchased from Corning (Corning® CellBIND® 384-well Flat Clear Bottom Black Polystyrene Microplates, Low Flange, #3770). Gambogic acid was purchased from Selleckchem (#S2448). Alamar blue was purchased from Thermofisher scientific (A50101) and used according to manufacturer instructions. The Nano-Glo® HiBit Lytic Detection System and Nano-Glo® HiBit Blotting System were purchased from Promega (#N3050 and #N2410) and used according to manufacturer instructions.
To create the MiaPaCa-2 HiBit-KRAS^G12C cell line, CRISPR-Cas9 was used to insert the HiBit tag onto the N-terminus of one or more of the four endogenous KRAS^G12C alleles. After knock-in of the tag, individual clones were isolated by single cell dilution and screened for HiBit insertion by PCR. Clones containing the HiBit tag were sequenced and one was identified that contained the desired HiBit-KRAS^G12C sequence at one allele while the remaining three KRAS^G12C alleles were unaffected. This line was used for all subsequent studies.
Either SW1573 HiBit-KRas^G12C or MiaPaCa-2 HiBit-KRas^G12C cells were plated at 9000 cells/well in a 384 well plate (Corning #3770). Exemplary heterobifunctional molecules and positive controls were diluted in the appropriate cell media and applied to the plated cells resulting in a final concentration titration of 10 μM to 20 nM in either 0.1% or 0.5% dimethyl sulfoxide (DMSO). Gambogic acid was used as a positive control for cytotoxicity and titrated from 10 μM to 78 nM. All assays were performed in triplicate. Cells were treated with compounds for 24 hours at 37° C. in an incubator containing 5% CO2. Following treatment, alamar blue was used to determine if any compounds led to a loss in cell viability after 24 hours. The 10× alamar blue reagent was added to a final concentration of 1× as recommended by the manufacturer and cells were returned to the incubator for 4 hours. Plates were then allowed to equilibrate to room temperature and fluorescence was measured using a Perkin-Elmer EnVision. After completion of the fluorescence read, the liquid from each well was removed and the cells were washed with PBS. The Nano-Glo® HiBiT detection reagent was prepared according to the manufacturer's instructions and added to each well after the PBS wash was removed. Following incubation at room temperature for 45 minutes, the luminescence was read using the ultra-sensitive luminescence aperture on the Envision instrument.
Fluorescence values from the alamar blue treatment were normalized to the DMSO only control for each compound titration. We hypothesized that compounds that led to a ≥50% loss in cell viability of the KRAS-independent SW1573 HiBit-KRas^G12C cells were likely generally cytotoxic and loss of HiBit-KRAS^G12C signal from these compounds may be due to lower cell number and not specific KRAS^G12C degradation. These points were therefore excluded from the data analysis for degradation. […]

HiBit-KRAS^G12C [2] = molecular target: T1, HiBit-KRAS^G12C; assay: HiBit degradation assay in SW1573 HiBit-KRas^G12C cells; type: cell-based; parameters: expressed in transfected cells; host or cells: SW1573 (clone E6), modified pcDNA3.1 vector, TK promoter; conditions: 24 hours
Summary of the method: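 HiBit-KRAS G12C degradation was measured after a 24 h compound exposure (titrated 10 μM–20 nM) in engineered SW1573 cells. Lytic HiBit luminescence, expressed relative to DMSO controls, yielded DC50 and Dmax from 4-parameter fits. Concentrations causing ≥50% loss in alamar blue viability were omitted as cytotoxic.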

[3] = read-out: KRas^G12C-HiBiT (MiaPaCa; 0.5% DMSO) IC50, MiaPaCa-2 HiBit-KRas^G12C cells, 0.5% DMSO
[4] = read-out: KRas^G12C-HiBiT (SW1573; 0.5% DMSO) IC50***, SW1573 HiBit-KRas^G12C, 0.5% DMSO

T1 sequence (P01116 1-186 isoform P01116-2 G12C limits assumed): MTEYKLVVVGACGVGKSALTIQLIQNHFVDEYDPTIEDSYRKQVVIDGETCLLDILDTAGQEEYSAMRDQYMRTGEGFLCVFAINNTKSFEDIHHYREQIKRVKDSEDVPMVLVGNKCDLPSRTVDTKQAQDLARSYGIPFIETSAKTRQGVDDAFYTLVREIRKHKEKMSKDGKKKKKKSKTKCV

Row | DC50 (HiBit-KRAS^G12C [1]; [3]) [nM] | DC50 (HiBit-KRAS^G12C [2]; [4]) [nM] | Dmax (HiBit-KRAS^G12C [1]; MIA PaCa-2, MiaPaCa-2 HiBit-KRas^G12C cells, 0.5% DMSO, maximum degradation, read-out: KRas^G12C-HiBiT (MiaPaCa; 0.5% DMSO) DMax) [%] | Dmax (HiBit-KRAS^G12C [2]; SW1573, SW1573 HiBit-KRas^G12C, 0.5% DMSO, read-out: KRas^G12C-HiBiT (SW1573; 0.5% DMSO) Dmax**) [%] | KRas^G12C-HiBiT (MiaPaCa; 0.5% DMSO) DMax (HiBit-KRAS^G12C [1]; MiaPaCa-2 HiBit-KRas^G12C cells, 0.5% DMSO, maximum degradation) | KRas^G12C-HiBiT (SW1573; 0.5% DMSO) Dmax** (HiBit-KRAS^G12C [2]; SW1573 HiBit-KRas^G12C, 0.5% DMSO) | Compound | DC50 (HiBit-KRAS^G12C [1]; read-out: KRas^G12C-HiBiT (MiaPaCa; 0.1% DMSO) IC50, MiaPaCa-2 HiBit-KRas^G12C cells, 0.1% DMSO) [nM] | Dmax (HiBit-KRAS^G12C [2]; SW1573, read-out: KRas^G12C-HiBit (SW1573; 0.1% DMSO) Dmax**, SW1573 HiBit-KRas^G12C, 0.1% DMSO) [%] | DC50 (HiBit-KRAS^G12C [2]; SW1573 HiBit-KRas^G12C, 0.1% DMSO, read-out: KRas^G12C-HIBit (SW1573; 0.1% DMSO) DC50*) [nM]
1 | – | – | – | – | – | – | C=CC(=O)N1CCN(c2nc(O[C@H](C)CN3CCN(CC4CN(CC(=O)N[C@H](C(=O)N5C[C@H](O)C[C@H]5C(=O)N[C@@H](C)c5ccc(-c6scnc6C)cc5)C(C)(C)C)C4)CC3)nc3c(F)c(-c4cc(O)cc5ccccc45)c(Cl)cc23)CC1 [Compound 28, (2S,4R)-1-[(2S)-2-{2-[3-({4-[(2R)-2-{[6-chloro-8-fluoro-7-(3-hydroxynaphthalen-1-yl)-4-[4-(prop-2-enoyl)piperazin-1-yl]quinazolin-2-yl]oxy}propyl]piperazin-1-yl}methyl)azetidin-1-yl]acetamido}-3,3-dimethylbutanoyl]-4-hydroxy-N-[(1S)-1-[4-(4-methyl-1,3-thiazol-5-yl)phenyl]ethyl]pyrrolidine-2-carboxamide] | > 1000 | < 35 | 100 to 1000
2 | 100 to 1000 | < 100 | – | – | – | – | C=C(F)C(=O)N1CCN(c2nc(OCCN3CCC(COc4cc([C@H](C(=O)N5C[C@H](O)C[C@H]5C(=O)N[C@@H](C)c5ccc(-c6ccnn6C)cc5)C(C)C)on4)CC3)nc3c(F)c(-c4cc(O)cc5ccccc45)c(Cl)cc23)C[C@@H]1CC#N [Compound 156, (2S,4R)-1-[(2R)-2-[3-({1-[2-({6-chloro-4-[(3S)-3-(cyanomethyl)-4-(2-fluoroprop-2-enoyl)piperazin-1-yl]-8-fluoro-7-(3-hydroxynaphthalen-1-yl)quinazolin-2-yl}oxy)ethyl]piperidin-4-yl}methoxy)-1,2-oxazol-5-yl]-3-methylbutanoyl]-4-hydroxy-N-[(1S)-1-[4-(1-methyl-1H-pyrazol-5-yl)phenyl]ethyl]pyrrolidine-2-carboxamide] | – | – | –
3 | > 1000 | 100 to 1000 | 35 to 70 | 35 to 70 | – | – | C=CC(=O)N1CCN(c2nc(OCCN3CC[C@@H](COCC(=O)N[C@H](C(=O)N4C[C@H](O)C[C@H]4C(=O)N[C@@H](C)c4ccc(-c5scnc5C)cc4)C(C)(C)C)C3)nc3c(F)c(-c4cc(O)cc5ccccc45)c(Cl)cc23)C[C@@H]1CC#N [Compound 140, (2S,4R)-1-[(2S)-2-(2-{[(3R)-1-[2-({6-chloro-4-[(3S)-3-(cyanomethyl)-4-(prop-2-enoyl)piperazin-1-yl]-8-fluoro-7-(3-hydroxynaphthalen-1-yl)quinazolin-2-yl}oxy)ethyl]pyrrolidin-3-yl]methoxy}acetamido)-3,3-dimethylbutanoyl]-4-hydroxy-N-[(1S)-1-[4-(4-methyl-1,3-thiazol-5-yl)phenyl]ethyl]pyrrolidine-2-carboxamide] | – | – | –
4 | < 100 | < 100 | – | – | A (A ≥ 70) | A (A ≥ 70) | C=CC(=O)N1CCN(c2nc(OCCN3CCC(COc4cc([C@H](C(=O)N5C[C@H](O)C[C@H]5C(=O)N[C@@H](C)c5ccc(-c6scnc6C)cc5)C(C)C)on4)CC3)nc3c(F)c(-c4cc(O)cc5ccccc45)c(Cl)cc23)C[C@@H]1CC#N (atropisomer, axis not shown) [Compound 173, (2S,4R)-1-[(2R)-2-[3-({1-[2-({6-chloro-4-[(3S)-3-(cyanomethyl)-4-(prop-2-enoyl)piperazin-1-yl]-8-fluoro-7-(3-hydroxynaphthalen-1-yl)quinazolin-2-yl}oxy)ethyl]piperidin-4-yl}methoxy)-1,2-oxazol-5-yl]-3-methylbutanoyl]-4-hydroxy-N-[(1S)-1-[4-(4-methyl-1,3-thiazol-5-yl)phenyl]ethyl]pyrrolidine-2-carboxamide] | – | – | –
